By MIC is commonly meant the smallest concentration in the dilution series that meets the test's criterion for growth inhibition. The term IC50 denotes the point on the concentration scale where inhibition reaches its midpoint.

This note sets out measurements from ChEMBL document CHEMBL5356986, “Research status of indole-modified natural products” (RSC Med Chem, 2023).

Data set [1] deals with Staphylococcus aureus. Nature of the data set: Antibacterial activity against Staphylococcus aureus ATCC 29213 assessed as reduction in microbial growth. It counts as functional.
A further data set deals with Escherichia coli. The data set can be described thus: Antibacterial activity against Escherichia coli assessed as reduction in bacterial growth by broth microdilution method. It counts as functional. On the technique in general: In broth dilution the organism is exposed to a series of concentrations in liquid medium.
A further data set relates to Acinetobacter baumannii. Nature of the data set: Antibacterial activity against Acinetobacter baumannii assessed as reduction in bacterial growth by broth microdilution method. The format is functional.
The subject of the next data set is Enterococcus faecalis. Nature of the data set: Antibacterial activity against Enterococcus faecalis assessed as reduction in bacterial growth. The format is functional.
In data set [2] the test system is Staphylococcus aureus. Nature of the data set: Antibacterial activity against Staphylococcus aureus […] assessed as reduction in microbial growth. It counts as functional.
Data set [3] concerns Staphylococcus aureus. The data set can be described thus: Antibacterial activity against methicillin-resistant Staphylococcus aureus assessed as reduction in microbial growth. The format is functional.
Data set [4] has as its system A549. Nature of the data set: Cytotoxicity against human A549 cells assessed as reduction in cell viability by MTS assay. It counts as functional, cell-based. Background: Tetrazolium assays rely on reduction of a dye to a coloured formazan, in cell work by metabolically active cells.
The next data set deals with Caco-2. The data set can be described thus: Antiproliferative activity against human Caco-2 cells incubated for 96 hrs by MTT assay. The format is functional, cell-based. The following applies: Caco-2, 96 h.
For data set [5], the system named is HeLa. Nature of the data set: Cytotoxicity against human HeLa cells assessed as reduction in cell viability incubated for 48 hrs by MTT assay. It counts as functional, cell-based.
The subject of a further data set is PC-3. The data set can be described thus: Antiproliferative activity against human PC-3 cells assessed as reduction in cell growth measured after 24 hrs by MTT assay. The format is functional, cell-based. The following applies: PC-3, 24 h.
The next data set deals with Leishmania donovani. Nature of the data set: Antileishmanial activity against Leishmania donovani assessed as parasite growth inhibition. It counts as functional, organism-based.
Data set [6] can be described thus: Antioxidant activity assessed as DPPH radical scavenging activity. The format is functional. A general note: DPPH is a stable violet radical that fades when it is reduced.
Data set [7] is described as follows: Cytotoxicity against mouse RAW264.7 cells assessed as reduction in cell viability incubated for 48 hrs by MTT assay. It counts as toxicity, cell-based.
Data set [8] deals with HepG2. The data set can be described thus: Antiproliferative activity against human HepG2 cells assessed as reduction in cell viability incubated for 48 hrs by MTT assay. It counts as functional, cell-based. The following applies: HepG2, 48 h.
Data set [9] has as its system HeLa. Nature of the data set: Cytotoxicity against human HeLa cells assessed as cell growth inhibition incubated for 24 hrs by MTT assay. It counts as functional, cell-based.
For data set [10], the system named is MCF7. Nature of the data set: Antiproliferative activity against human MCF7 cells assessed as inhibition of cell growth by CCK8 assay. The format is functional, cell-based.
For data set [11], the system named is Trichophyton mentagrophytes. Nature of the data set: Antifungal activity against Trichophyton mentagrophytes assessed as inhibition of fungal growth incubated for 48 hrs by serial plate dilution method. The format is functional.
Another data set concerns Nannizzia gypsea. Nature of the data set: Antifungal activity against Microsporum gypseum assessed as fungal growth inhibition. The format is functional.
The subject of data set [12] is Trichophyton mentagrophytes. The data set can be described thus: Antifungal activity against Trichophyton mentagrophytes assessed as inhibition of microbial growth. It counts as functional.
Data set [13] has as its system HeLa. Nature of the data set: Antiproliferative activity against human HeLa cells assessed as inhibition of cell growth incubated for 72 hrs by MTT assay. It counts as functional, cell-based.
In another data set the test system is Toxoplasma gondii. The data set can be described thus: Antiparasitic activity against Toxoplasma gondii tachyzoites infected in human HeLa cells. The format is functional, organism-based.
In data set [14] the test system is HeLa. Nature of the data set: Antiproliferative activity against human HeLa cells assessed as reduction in cell growth. The format is functional, cell-based.
In data set [15] the test system is A549. The data set can be described thus: Antiproliferative activity against human A549 cells assessed as reduction in cell viability incubated for 48 hrs by MTT assay. The format is functional, cell-based. Particulars: A549, 48 h.
The subject of data set [16] is A549. Nature of the data set: Antiproliferative activity against human A549 cells assessed as reduction in cell growth incubated for 72 hrs by MTT assay. It counts as functional, cell-based. The following applies: A549, 72 h.
For data set [17], the system named is MCF7. Nature of the data set: Antiproliferative activity against human MCF7 cells assessed as reduction in cell viability incubated for 120 hrs by MTT assay. It counts as functional, cell-based. Particulars: MCF7, 120 h.
A further data set has as its system K562. The data set can be described thus: Antiproliferative activity against human K562 cells assessed as cell growth inhibition by MTT assay. The format is functional, cell-based.
A further data set relates to Arthrodermataceae. The data set can be described thus: Antibacterial activity against Arthrodermataceae. It counts as functional.
A further data set deals with Alpha glucosidase (Homo sapiens, UniProt O43451+P10253+P14410+Q2M2H8). Nature of the data set: Inhibition of Alpha-glucosidase (unknown origin) using p-nitrophenyl glucopyranoside as substrate by UV based microplate reader analysis. The format is protein assay.
The next data set relates to SMMC-7721. The data set can be described thus: Cytotoxicity against human SMMC-7721 cells assessed as reduction in cell viability by SRB assay. It counts as functional, cell-based.
Data set [18] deals with HepG2. The data set can be described thus: Cytotoxicity against human HepG2 cells assessed as reduction in cell viability by MTT assay. It counts as functional.
A further data set has as its system Hep 3B2. Nature of the data set: Cytotoxicity against human Hep3B cells assessed as cell growth inhibition by MTT colorimetric assay. The format is functional, cell-based.

Values after ≈ are worked out from the molar mass of the structure shown.

Regarding `Cc1cc(=O)oc2cc(/N=C3/S/C(=C\c4c[nH]c5ccccc45)C(=O)N3CCO)ccc12`, the MIC in the data set with Staphylococcus aureus [1] is 0.25 µg/mL; with Escherichia coli, 0.25 µg/mL (≈ 0.561 µM); in the data set with Acinetobacter baumannii it was 0.25 µg/mL (≈ 0.561 µM); in the data set on Enterococcus faecalis, 0.25 µg/mL (≈ 0.561 µM); with Staphylococcus aureus [2], 0.25 µg/mL; in the data set with Staphylococcus aureus [3], 0.25 µg/mL.
`CC(C)=CCC[C@](C)(O)[C@H]1CC[C@@](C)([C@H]2CC[C@H]3[C@H]2CC[C@H]2C(C)(C)c4[nH]c5ccc(Br)cc5c4C[C@]32C)O1`: the IC50 in the data set with A549 [4] was 13.4 µM.
Regarding `COc1cc(/C=C/C(=O)CC(=O)/C=C/c2ccc(O)c(OC)c2)ccc1O` [CURCUMIN], the values for the IC50 in the data set with Caco-2, in the data set on HeLa [5] and in the data set with PC-3 were 47.6 µM, 25.4 µM and 12.2 µM, respectively.
As for `O=C(CCC(c1c(Cl)cccc1Cl)c1c[nH]c2ccccc12)c1c(O)c2ccccc2oc1=O` (stereo not drawn), the IC50 was 95 µg/mL (≈ 193 µM) with Leishmania donovani and 13.5 µM in data set [6].
With `C=C(C)[C@@H]1CC[C@]2(C)CC[C@]3(C)[C@H](CC[C@@H]4[C@@]5(C)Cc6c([nH]c7cc(I)ccc67)C(C)(C)[C@@H]5CC[C@]43C)[C@@H]12`, the IC50 at 48 h in [7] came out at 22.6 µM.
For the molecule `COc1ccc(/C=C/C(=O)/C=C/c2c[nH]c3ccccc23)c(OC)c1OC`, the IC50 with HeLa [5] was 3.31 µM; in the data set on PC-3, 3.15 µM.
Regarding `C[C@]12CC[C@H]3[C@]4(C=C[C@]5(C[C@@H](O)CC[C@]35C)OO4)[C@@H]1CC/C2=N\N=C1/C(=O)Nc2ccc(Cl)cc21`, the results for the IC50 in the data set on HepG2 [8], in the data set with HeLa [9] and in the data set with MCF7 [10] were 7.97 µM, 5.69 µM and 9.05 µM, respectively.
On to `CCOc1c(Br)cc(/C=C/C(=O)c2c[nH]c3ccccc23)cc1OC`, for which the MIC in [11] is 2 µg/mL (≈ 5 µM); in the data set with Nannizzia gypsea it was 0.25 µg/mL (≈ 0.625 µM); in [12] it was 4 µg/mL.
For `COc1cc(C(=O)/C=C/c2c[nH]c3ccccc23)cc([Se]C)c1OC`, the IC50 in the data set with HeLa [13] was 59 nM; with Toxoplasma gondii (Toxoplasma gondii, HeLa), 0.023 µM.
Regarding `COc1cc([C@@H]2c3cc4c(cc3[C@@H](O[C@@H]3O[C@@H]5CO[C@@H](C)O[C@H]5[C@H](O)[C@H]3O)[C@H]3COC(=O)[C@H]23)OCO4)cc(OC)c1O` [ETOPOSIDE], the IC50 turned out to be 2560 nM in the data set with HeLa [14]; 2270 nM in the data set on A549 [15]; 9.9 µM with A549 [16]; 2560 nM in the data set with MCF7 [17]; 1720 nM in the data set on K562.
Consider `COc1ccc(/C=C/C(=O)c2cn(C)c3ccccc23)cc1`, for which the MIC worked out at 4 µg/mL (≈ 13.7 µM) in the data set on Arthrodermataceae, 1 µg/mL (≈ 3.43 µM) in the data set with Nannizzia gypsea and 8 µg/mL in [12].
Turning to SPIRAMYCIN, the IC50 in the data set on Toxoplasma gondii was 262 µM.
Take `COc1cc(/C=C/C(=O)/C=C/c2c[nH]c3ccccc23)ccc1O`: the IC50 in the data set on Caco-2 worked out at 8 µM.
At Alpha glucosidase, `C=C(C)[C@@H](C)CC[C@@H](C)[C@H]1CC[C@@]2(C)[C@@H]3CC[C@H]4[C@H](C)C(=O)CC[C@@]45C[C@@]35CC[C@]12C` gave an IC50 of 603.8 µM.
In the case of `CCOC(=O)c1ccc2c(c1)c1c(n2CCN2CCNCC2)-c2cc(C(C)C)ccc2[C@@]2(C)CCC[C@@](C)(C(=O)OC)[C@H]12`, the IC50 with SMMC-7721 was below 1390 nM; with HepG2 [18], 0.51 µM; in the data set on Hep 3B2 it was below 730 nM.
`C=C(C)[C@@H](C)CC[C@@H](C)C1CC[C@@]2(C)[C@@H]3CC[C@H]4[C@H](C)c5[nH]c6ccccc6c5C[C@@]45C[C@@]35CC[C@]12C` (stereo partly drawn) returned an IC50 at Alpha glucosidase of 115.2 µM.
